Molecular target: T1, MAGL (Homo sapiens, UniProt Q99685)
T1 sequence (Q99685 1-303): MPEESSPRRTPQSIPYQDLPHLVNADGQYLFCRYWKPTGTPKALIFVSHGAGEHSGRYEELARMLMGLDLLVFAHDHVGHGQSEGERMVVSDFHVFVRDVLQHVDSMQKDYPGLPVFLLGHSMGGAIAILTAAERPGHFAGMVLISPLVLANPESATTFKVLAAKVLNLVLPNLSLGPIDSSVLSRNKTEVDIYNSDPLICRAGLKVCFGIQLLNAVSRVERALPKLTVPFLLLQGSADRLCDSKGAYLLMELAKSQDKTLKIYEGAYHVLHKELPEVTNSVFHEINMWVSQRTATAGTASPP
Experiment: 2-AG assay (MAGL inhibitory activity, hydrolysis of 2-arachidonoylglycerol followed by mass spectrometry)
Assay type: biochemical
Conditions: 50 pM MAGL, 8 μM 2-arachidonoylglycerol, 15 min preincubation, 30 min incubation at RT, concentration range 12.5 μM to 0.8 pM
Method: Compounds were profiled for MAGL inhibitory activity by determining the enzymatic activity by following the hydrolysis of the natural substrate 2-arachidonoylglycerol resulting in arachidonic acid, which can be followed by mass spectrometry. This assay is hereinafter abbreviated “2-AG assay”.
The 2-AG assay was carried out in 384 well assay plates (PP, Greiner Cat #784201) in a total volume of 20 μL. Compound dilutions were made in 100% DMSO (VWR Chemicals 23500.297) in a polypropylene plate in 3-fold dilution steps to give a final concentration range in the assay from 12.5 μM to 0.8 pM. 0.25 μL compound dilutions (100% DMSO) were added to 9 μL MAGL in assay buffer (50 mM TRIS (GIBCO, 15567-027), 1 mM EDTA (Fluka, 03690-100 mL), 0.01% (v/v) Tween. After shaking, the plate was incubated for 15 min at RT. To start the reaction, 10 μL 2-arachidonoylglycerol in assay buffer was added. The final concentrations in the assay was 50 pM MAGL and 8 μM 2-arachidonoylglyerol. After shaking and 30 min incubation at RT, the reaction was quenched by the addition of 40 μL of ACN containing 4 μM of d8-arachidonic acid. The amount of arachidonic acid was traced by an online SPE system (Agilent Rapidfire) coupled to a triple quadrupole mass spectrometer (Agilent 6460). A C18 SPE cartridge (G9205A) was used in an ACN/water liquid setup. The mass spectrometer was operated in negative electrospray mode following the mass transitions 303.1→259.1 for arachidonic acid and 311.1→267.0 for d8-arachidonic acid. The activity of the compounds was calculated based on the ratio of intensities [arachidonic acid/d8-arachidonic acid].

SMILES | IC50 [nM]
O=C1N[C@H](CCC(=O)N2CC(c3ccc(N4CCC(C(F)(F)F)C4)c(F)c3)C2)CO1 (stereo partly drawn) [Example 129, (4R)-4-[3-[3-[3-Fluoro-4-[3-(trifluoromethyl)pyrrolidin-1-yl]phenyl]azetidin-1-yl]-3-oxo-propyl]oxazolidin-2-one] | 3
CS(=O)(=O)c1ccc(-c2cnc(C3CN(C(=O)CC[C@@H]4COC(=O)N4)C3)cn2)c(Cl)c1 [Example 110, (4R)-4-[3-[3-[5-(2-Chloro-4-methylsulfonyl-phenyl)pyrazin-2-yl]azetidin-1-yl]-3-oxo-propyl]oxazolidin-2-one] | 70
O=C1N[C@H](CCC(=O)N2CC(c3cnc(N4CCC(C(F)(F)F)C4)cn3)C2)CO1 (stereo partly drawn) [Example 105, (4R)-4-[3-Oxo-3-[3-[5-[3-(trifluoro-methyl)pyrrolidin-1-yl]pyrazin-2-yl]azetidin-1-yl]propyl] oxazolidin-2-one] | 43
O=C1N[C@H](CCC(=O)N2CC(c3ncc(-c4ccc(Cl)cc4F)cn3)C2)CO1 [Example 112, (4R)-4-[3-[3-[5-(4-Chloro-2-fluoro-phenyl)pyrimidin-2-yl]azetidin-1-yl]-3-oxo-propyl]oxazolidin-2-one] | 43
O=C1N[C@H](CCC(=O)N2CC(c3ccc(-c4ccc(F)cc4F)cc3)C2)CO1 [Example 24, (4R)-4-[3-[3-[4-(2,4-Difluorophenyl)phenyl]azetidin-1-yl]-3-oxo-propyl]oxazolidin-2-one] | 2
CC(C)(Oc1ccc(C2CN(C(=O)CCCc3cnn[nH]3)C2)cc1)C(F)(F)F [Example 41, 4-(1H-Triazol-5-yl)-1-[3-[4-(2,2,2-trifluoro-1,1-dimethyl-ethoxy)phenyl]azetidin-1-yl]butan-1-one] | 23
CS(=O)(=O)c1cc(Cl)ccc1-c1ccc(C2CN(C(=O)CC[C@@H]3COC(=O)N3)C2)nc1 [Example 121, (4R)-4-[3-[3-[5-(4-Chloro-2-methylsulfonyl-phenyl)-2-pyridyl]azetidin-1-yl]-3-oxo-propyl]oxazolidin-2-one] | 2
O=C1N[C@H](CCC(=O)N2CC(c3ccc(Oc4ccc(F)cc4)cc3)C2)CO1 [Example 30, (4R)-4-[3-[3-[4-(4-Fluorophenoxy)phenyl]azetidin-1-yl]-3-oxo-propyl]oxazolidin-2-one] | 1
CS(=O)(=O)c1cccc(CN2CCC3(CC2)CN(C(=O)CC[C@@H]2COC(=O)N2)C3)c1 [Example 193, (4R)-4-[3-[7-[(3-Methyl-sulfonylphenyl)methyl]-2,7-diazaspiro[3.5]nonan-2-yl]-3-oxo-propyl] oxazolidin-2-one] | 794
O=C1N[C@H](CCC(=O)N2CC(c3ccc(-c4cnc(C(F)(F)F)cn4)cc3)C2)CO1 [Example 119, (4R)-4-[3-Oxo-3-[3-[4-[5-(trifluoromethyl)pyrazin-2-yl]phenyl]azetidin-1-yl]propyl] oxazolidin-2-one] | 33
CS(=O)(=O)c1ncc(C(F)(F)F)cc1-c1ccc(C2CN(C(=O)CC[C@@H]3COC(=O)N3)C2)cc1 [Example 124, (4R)-4-[3-[3-[4-[2-Methyl-sulfonyl-5-(trifluoromethyl)-3-pyridyl]phenyl]azetidin-1-yl]-3-oxo-propyl] oxazolidin-2-one] | 3
CS(=O)(=O)c1ccc(-c2cnc(C3CN(C(=O)CC[C@@H]4COC(=O)N4)C3)nc2)c(Cl)c1 [Example 122, (4R)-4-[3-[3-[5-(2-Chloro-4-methylsulfonyl-phenyl)pyrimidin-2-yl]azetidin-1-yl]-3-oxo-propyl] oxazolidin-2-one] | 379
O=C1N[C@H](CCC(=O)N2CC(c3ccc(N4CC(C(F)(F)F)C4)c(F)c3)C2)CO1 [Example 134, (4R)-4-[3-[3-[3-Fluoro-4-[3-(trifluoromethyl)azetidin-1-yl]phenyl]azetidin-1-yl]-3-oxo-propyl] oxazolidin-2-one] | 16
O=C1N[C@H](CCC(=O)N2CC3(CCC(Oc4ccc(C(F)(F)F)nn4)CC3)C2)CO1 [Example 136, (4R)-4-[3-Oxo-3-[7-[6-(trifluoro-methyl)pyridazin-3-yl]oxy-2-azaspiro[3.5]nonan-2-yl]propyl] oxazolidin-2-one] | 22
O=C1N[C@H](CCC(=O)N2CC(c3ccc(Oc4ccccc4Cl)nc3)C2)CO1 [Example 28, (4R)-4-[3-[3-[6-(2-Chlorophenoxy)-3-pyridyl]azetidin-1-yl]-3-oxo-propyl]oxazolidin-2-one] | 10
O=C1N[C@H](CCC(=O)N2CC(C#Cc3cccc(Cl)c3)C2)CO1 [Example 33, (4R)-4-[3-[3-[2-(3-Chlorophenyl)ethynyl]azetidin-1-yl]-3-oxo-propyl]oxazolidin-2-one] | 12
O=C(CCCc1cnn[nH]1)N1CC(c2ccc(C3(C(F)(F)F)CC3)cc2)C1 [Example 40, 4-(1H-Triazol-5-yl)-1-[3-[4-[1-(trifluoro-methyl)cyclopropyl]phenyl]azetidin-1-yl]butan-1-one] | 21
CS(=O)(=O)c1cc(F)ccc1CC1CC2(C1)CN(C(=O)CC[C@@H]1COC(=O)N1)C2 [Example 157, (4R)-4-[3-[6-[(4-Fluoro-2-methylsulfonyl-phenyl)methyl]-2-azaspiro[3.3]heptan-2-yl]-3-oxo-propyl]oxazolidin-2-one] | 25
O=C1N[C@H](CCC(=O)N2CC(c3ccc(-c4nc(C5CC5)n[nH]4)cc3)C2)CO1 [Example 177, (4R)-4-[3-[3-[4-(3-Cyclo-propyl-1H-1,2,4-triazol-5-yl)phenyl]azetidin-1-yl]-3-oxo-propyl]oxazolidin-2-one] | 353
CC(C)c1ccc(N(C)c2ccc(C3CN(C(=O)CC[C@@H]4COC(=O)N4)C3)cn2)cc1 [Example 94, (4R)-4-[3-[3-[6-(4-Isopropyl-N-methyl-anilino)-3-pyridyl]azetidin-1-yl]-3-oxo-propyl]oxazolidin-2-one] | 10
CC1(O)CN(c2ccc(C3CN(C(=O)CC[C@@H]4COC(=O)N4)C3)cn2)C1 [Example 160, (4R)-4-[3-[3-[6-(3-Hydroxy-3-methyl-azetidin-1-yl)-3-pyridyl]azetidin-1-yl]-3-oxo-propyl]oxazolidin-2-one] | 1330
Cc1cc(C)n(-c2ccc(C3CN(C(=O)CC[C@@H]4COC(=O)N4)C3)cc2)n1 [Example 145, (4R)-4-[3-[3-[4-(3,5-Dimethyl-pyrazol-1-yl)phenyl]azetidin-1-yl]-3-oxo-propyl]oxazolidin-2-one] | 73
O=C1N[C@H](CCC(=O)N2CC(c3ccc(-c4ccc(Cl)cc4Cl)cn3)C2)CO1 [Example 114, (4R)-4-[3-[3-[5-(2,4-Dichloro-phenyl)-2-pyridyl]azetidin-1-yl]-3-oxo-propyl]oxazolidin-2-one] | 0.18
O=C1N[C@H](CCC(=O)N2CC3(CC(Oc4ccc(F)cc4Cl)C3)C2)CO1 [Example 29, (4R)-4-[3-[6-(2-Chloro-4-fluoro-phenoxy)-2-azaspiro[3.3]heptan-2-yl]-3-oxo-propyl]oxazolidin-2-one] | 6
O=C1N[C@H](CCC(=O)N2CC(c3ccc(N4CC5(CCCC5)C4)cc3)C2)CO1 [Example 131] | 1
O=C1N[C@H](CCC(=O)N2CC(OCc3ccc(S(F)(F)(F)(F)F)cc3F)C2)CO1 [Example 26, (4R)-4-[3-[3-[[2-Fluoro-4-(pentafluoro-λ^6-sulfanyl)phenyl]methoxy]azetidin-1-yl]-3-oxo-propyl]oxazolidin-2-one] | 4

From US11981661B2, “Heterocyclic compounds” (Hoffmann-La Roche Inc., priority 2020, dated 2024)
